One data set deals with T1, HDAC6 (Homo sapiens, UniProt Q9UBN7).
T1 sequence (Q9UBN7 1-1215): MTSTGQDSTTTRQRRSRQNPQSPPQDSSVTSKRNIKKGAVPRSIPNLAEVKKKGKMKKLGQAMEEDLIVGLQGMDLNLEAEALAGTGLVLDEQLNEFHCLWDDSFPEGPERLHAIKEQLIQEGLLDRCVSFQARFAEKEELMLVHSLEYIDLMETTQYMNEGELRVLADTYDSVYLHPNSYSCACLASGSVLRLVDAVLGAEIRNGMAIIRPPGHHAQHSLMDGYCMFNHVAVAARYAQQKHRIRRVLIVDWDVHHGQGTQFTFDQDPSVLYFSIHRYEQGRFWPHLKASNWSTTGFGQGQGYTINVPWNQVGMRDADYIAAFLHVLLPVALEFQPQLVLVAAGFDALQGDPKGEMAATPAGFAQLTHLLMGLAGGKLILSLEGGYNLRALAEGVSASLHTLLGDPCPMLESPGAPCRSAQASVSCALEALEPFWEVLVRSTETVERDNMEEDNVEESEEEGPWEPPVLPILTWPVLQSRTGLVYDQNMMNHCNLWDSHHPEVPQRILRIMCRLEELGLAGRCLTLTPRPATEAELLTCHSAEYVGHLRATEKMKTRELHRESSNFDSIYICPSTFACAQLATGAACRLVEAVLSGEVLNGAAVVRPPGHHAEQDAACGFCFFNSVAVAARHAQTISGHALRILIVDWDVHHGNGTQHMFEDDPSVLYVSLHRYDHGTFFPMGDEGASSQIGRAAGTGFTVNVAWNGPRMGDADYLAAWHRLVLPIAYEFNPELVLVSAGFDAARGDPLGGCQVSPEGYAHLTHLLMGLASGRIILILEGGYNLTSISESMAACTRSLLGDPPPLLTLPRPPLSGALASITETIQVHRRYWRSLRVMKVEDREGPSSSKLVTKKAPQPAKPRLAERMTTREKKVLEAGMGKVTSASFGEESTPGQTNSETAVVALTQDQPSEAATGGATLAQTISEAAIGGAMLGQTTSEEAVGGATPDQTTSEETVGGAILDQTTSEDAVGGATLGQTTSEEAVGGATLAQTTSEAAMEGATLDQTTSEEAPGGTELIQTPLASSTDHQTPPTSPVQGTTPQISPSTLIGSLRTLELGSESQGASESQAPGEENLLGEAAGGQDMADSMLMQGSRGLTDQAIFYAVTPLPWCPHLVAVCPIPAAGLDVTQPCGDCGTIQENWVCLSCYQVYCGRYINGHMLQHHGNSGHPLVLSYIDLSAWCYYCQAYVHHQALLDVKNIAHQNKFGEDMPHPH
Nature of the data set: HDAC enzyme-based fluorogenic assay, HDAC6. Format: biochemical. Conditions: final concentration of 2 μM, preliminary screen.

For a further data set, the target named is T2, HsEH (Homo sapiens, UniProt P34913).
T2 sequence (P34913 1-555): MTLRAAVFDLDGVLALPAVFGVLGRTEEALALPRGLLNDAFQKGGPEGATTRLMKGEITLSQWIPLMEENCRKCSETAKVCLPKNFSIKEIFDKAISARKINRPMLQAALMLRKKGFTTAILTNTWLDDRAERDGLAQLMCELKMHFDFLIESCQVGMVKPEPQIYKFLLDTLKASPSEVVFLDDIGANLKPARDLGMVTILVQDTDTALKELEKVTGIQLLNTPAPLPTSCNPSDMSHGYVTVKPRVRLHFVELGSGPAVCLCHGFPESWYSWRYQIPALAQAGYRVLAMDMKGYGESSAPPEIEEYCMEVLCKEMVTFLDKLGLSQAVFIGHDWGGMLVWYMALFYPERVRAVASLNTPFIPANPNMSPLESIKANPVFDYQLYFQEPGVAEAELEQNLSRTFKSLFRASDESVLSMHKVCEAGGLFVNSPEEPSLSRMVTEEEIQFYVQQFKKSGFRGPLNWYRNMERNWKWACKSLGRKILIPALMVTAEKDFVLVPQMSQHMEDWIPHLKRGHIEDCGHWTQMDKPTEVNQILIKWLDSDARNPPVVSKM
The data set can be described thus: fluorescent-based sEH assay with PHOME as substrate. The data set is classed as biochemical.

The target in a further data set is T3, MsEH (Mus musculus, UniProt P34914).
T3 sequence (P34914 1-554): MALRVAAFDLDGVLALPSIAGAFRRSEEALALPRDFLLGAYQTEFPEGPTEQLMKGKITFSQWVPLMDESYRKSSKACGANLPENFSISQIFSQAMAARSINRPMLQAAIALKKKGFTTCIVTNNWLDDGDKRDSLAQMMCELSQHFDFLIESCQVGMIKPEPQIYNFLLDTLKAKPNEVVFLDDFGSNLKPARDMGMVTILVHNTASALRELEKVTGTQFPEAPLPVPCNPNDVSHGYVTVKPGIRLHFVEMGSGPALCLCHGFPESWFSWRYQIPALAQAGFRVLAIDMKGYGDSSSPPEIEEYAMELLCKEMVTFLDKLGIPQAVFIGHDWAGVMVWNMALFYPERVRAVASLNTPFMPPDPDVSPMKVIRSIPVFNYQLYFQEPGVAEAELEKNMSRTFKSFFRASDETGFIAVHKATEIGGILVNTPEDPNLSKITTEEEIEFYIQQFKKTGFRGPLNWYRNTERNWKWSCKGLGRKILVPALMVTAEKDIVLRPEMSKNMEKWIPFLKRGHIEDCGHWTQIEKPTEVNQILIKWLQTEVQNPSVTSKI
The data set is described as above. Format: biochemical.

A short description of data set [1]: In vitro metabolic stability in rat liver microsomes. Format: in vitro ADME. Conditions: for metabolic stability in RLM, column 0: incubation 0 min; for metabolic stability in RLM, column 0 / metabolic stability in RLM, column 10 / metabolic stability in RLM, column 30 / metabolic stability in RLM, column 45 / metabolic stability in RLM, column 60: 37 °C, NADPH; for metabolic stability in RLM, column 10: incubation 10 min; for metabolic stability in RLM, column 30: incubation 30 min; for metabolic stability in RLM, column 45: incubation 45 min; for metabolic stability in RLM, column 60: incubation 60 min; for t1/2 in RLM: rat liver microsomes. (Liver microsomes are vesicles of endoplasmic reticulum, rich in cytochrome P450 enzymes.)

For data set [2], the system named is formalin-induced inflammatory pain in mice. The data set can be described thus: Formalin-induced inflammatory pain model in mice. Format: in vivo, Kunming mice. Conditions: dose study, Figure 15; 10 mg/kg, compared with the model group.
Data set [3] concerns xylene-induced ear swelling inflammation in mice. Nature of the data set: Xylene-induced ear swelling inflammation model in mice. Format: in vivo, Kunming mice. The note with it: Table 7 dose study, 10 mg/kg by gavage for 7 days.

Where only a bound is given, the exact number is not on record here.

On to `C[C@]12C[C@@H]3C[C@](C)(C1)C[C@@](NC(=O)Nc1ccc(C(=O)N4CCC[C@H](C(=O)NCCCCCCC(=O)NO)C4)cc1F)(C3)C2` [Compound 7d, (S)-1-(4-(3-((1r,3R,5S,7S)-3,5-Dimethyladamantan-1-yl)ureido)-3-fluorobenzoyl)-N-(7-(hydroxyamino)-7-oxoheptyl)piperidine-3-carboxamide], for which the HDAC6 inhibitor rate at HDAC6 is given as 63%.
As for `Cc1cc(NC(=O)Nc2ccc(C(=O)N3CCC[C@H](C(=O)NCCCCCCC(=O)NO)C3)cc2F)ccc1F` [Compound 28i, (S)-1-(3-Fluoro-4-(3-(4-fluoro-3-methylphenyl)ureido)benzoyl)-N-(7-(hydroxyamino)-7-oxoheptyl)piperidine-3-carboxamide], the values for the IC50 against HsEH and at MsEH were 1.2 nM and 7.7 nM, respectively.
`CC12CC3CC(C)(C1)CC(Nc1c(Nc4ccc(CN5CCC[C@H](C(=O)NCCCCCCC(=O)NO)C5)cc4F)c(=O)c1=O)(C3)C2` [Compound 34d, (S)-1-(4-((2-(((1r,3R,5S,7r)-3,5-Dimethyladamantan-1-yl)amino)-3,4-dioxocyclobut-1-en-1-yl)amino)-3-fluorobenzyl)-N-(7-(hydroxyamino)-7-oxoheptyl)piperidine-3-carb-oxamide]: in data set [1], the “metabolic stability in RLM, column 0” value worked out at 100.00; the “metabolic stability in RLM, column 10” value came to 82.82; the “metabolic stability in RLM, column 30” value worked out at 73.29; the “metabolic stability in RLM, column 45” value turned out to be 66.27. For the same compound, in data set [1], the “metabolic stability in RLM, column 60” value was found to be 50.51 and the “t1/2 in RLM” value was 1.223 h.
Turning to `Cc1ccc(-c2cc(C(F)(F)F)nn2-c2ccc(S(N)(=O)=O)cc2)cc1` [Celecoxib, reference compound], the “pain response, second phasic response” value in data set [2] is given as “reduced the pain response”. For the same compound, in data set [3], the Inhibition rate amounted to 32.83%, the Swelling degree was determined as 10.5 ± 1.5 mg and the Swelling rate turned out to be 74.21%.
`O=C(CCCCCCNC(=O)[C@H]1CCCN(C(=O)c2ccc(NC(=O)NC(c3ccccc3)c3ccccc3)c(F)c2)C1)NO` [Compound 28k, (S)-1-(4-(3-Benzhydrylureido)-3-fluorobenzoyl)-N-(7-(hydroxyamino)-7-oxoheptyl) piperidine-3-carboxamide] came in with an HDAC6 inhibitor rate at HDAC6 of 63.58%.
The compound `C[C@]12C[C@@H]3C[C@](C)(C1)C[C@@](NC(=O)Nc1ccc(CN4CCC[C@H](C(=O)NCCCCCCC(=O)NO)C4)cc1F)(C3)C2` [Compound 16d, (S)-1-(4-(3-((1r,3R,5S,7S)-3,5-Dimethyladamantan-1-yl)ureido)-3-fluorobenzyl)-N-(7-(hydroxyamino)-7-oxoheptyl)piperidine-3-carboxamide] gave an HDAC6 inhibitor rate at HDAC6 of 63%. For the same compound, in data set [1], the “metabolic stability in RLM, column 0” value is 100.00; the “metabolic stability in RLM, column 10” value is recorded as 89.16; the “metabolic stability in RLM, column 30” value stood at 79.33; the “metabolic stability in RLM, column 45” value worked out at 52.13. In data set [1], the “metabolic stability in RLM, column 60” value is 46.62 and the “t1/2 in RLM” value came out at 0.8165 h.
Turning to `O=C(CCCCCCNC(=O)[C@H]1CCCN(C(=O)c2ccc(NC(=O)Nc3ccc(F)c(Cl)c3)c(F)c2)C1)NO` [Compound 28e, (S)-1-(4-(3-(3-Chloro-4-fluorophenyl)ureido)-3-fluorobenzoyl)-N-(7-(hydroxyamino)-7-oxoheptyl)piperidine-3-carboxamide], the values for the IC50 at HsEH and on MsEH were 0.7 nM and 5.4 nM, respectively.
Take `O=C(CCCCCCNC(=O)[C@H]1CCCN(C(=O)c2ccc(NC(=O)Nc3ccc(OC(F)(F)F)c(F)c3)c(F)c2)C1)NO` [Compound 28a, (S)-1-(3-Fluoro-4-(3-(3-fluoro-4-(trifluoromethoxy)phenyl)ureido)benzoyl)-N-(7-(hyd-roxyamino)-7-oxoheptyl)piperidine-3-carboxamide]: the HDAC6 inhibitor rate at HDAC6 is listed as more than 91%.
In the case of `Cc1ccc(NC(=O)Nc2ccc(C(=O)N3CCC[C@H](C(=O)NCCCCCCC(=O)NO)C3)cc2F)cc1F` [Compound 28h, (S)-1-(3-Fluoro-4-(3-(3-fluoro-4-methylphenyl)ureido)benzoyl)-N-(7-(hydroxyamino)-7-oxoheptyl)piperidine-3-carboxamide], the IC50 (usually the concentration that inhibits the measured activity by half) turned out to be 0.7 nM against HsEH and 7.4 nM on MsEH. Further, the HDAC6 inhibitor rate at HDAC6 is more than 91%.

(Values after article PMC11412156 (Journal of medicinal chemistry, 2024).)
